Experimental data from patent publication US20230127944A1, “BROAD-SPECTRUM CARBAPENEMS” (priority 2019, published 2023).

What was measured:
[1] = system: P. aeruginosa clinical isolates; assay: expanded MIC profiling, P. aeruginosa clinical isolates; assay type: cell-based; conditions: Pseudomonas aeruginosa
Experimental: (§1) To evaluate the activity of selected example compounds against clinical isolates of target species, standard cell-based broth microdilution MIC assays were employed. A panel of 20 clinical isolates of P. aeruginosa and 20 clinical isolates of Methicillin Resistant S. aureus (MRSA) from Lankenau Medical Center (Wynnewood, Pa.) were used. In the set of P. aeruginosa isolates, the compounds were also tested in combination with a β-lactamase inhibitor (taniborbactam), to evaluate the potential benefit of inhibiting β-lactamase enzymes. The assay was conducted in Cation Adjusted Mueller Hinton Broth (CAMHB, BD #212322, BD Diagnostic Systems, Sparks, Md.). Bacteria strains were grown for 3-5 hours in CAMHB. Compounds were added to a microtiter plate in 2-fold serial dilutions in CAMHB. For plates receiving β-lactamase inhibitor, taniborbactam was added to obtain a final fixed concentration of 4 μg/mL. Once the test articles were added, the plates were inoculated according to CLSI broth microdilution method. After inoculation, the plates were incubated for 16-20 hours at 37° C. then the Minimal Inhibitory Concentration (MIC) of the test compound is determined visually. Values for concentration required to inhibit growth of […] (MIC50) and 90% (MIC90) of isolates were determined.

[2] = system: Methicillin Resistant S. aureus (MRSA) clinical isolates; assay: expanded MIC profiling, MRSA clinical isolates; assay type: cell-based; conditions: Staphylococcus aureus
Experimental: as §1

[3] = panel of 20 P. aeruginosa clinical isolates
[4] = panel of S. aureus (MRSA) isolates of Table 5

C[C@@H](O)[C@H]1C(=O)N2C(C(=O)O)=C(S[C@@H]3CN[C@H](C(=O)N(C)C)C3)[C@H](C)[C@H]12 [Meropenem, reference compound]
1 µg/mL: MIC ([1]; P. aeruginosa clinical isolate Lankenau 11) | MIC ([1]; P. aeruginosa clinical isolate Lankenau 13) | MIC ([1]; P. aeruginosa clinical isolate Lankenau 15) | MIC ([1]; P. aeruginosa clinical isolate Lankenau 17) | MIC ([1]; P. aeruginosa clinical isolate Lankenau 19) | MIC ([1]; P. aeruginosa clinical isolate Lankenau 21) | MIC90 [1, 3]
32 µg/mL: MIC ([2]; ATCC 33591 / MRSA, S. aureus ATCC-33591) | MIC ([2]; MRSA, S. aureus clinical isolate LH-SA38)
4 µg/mL: MIC ([1]; P. aeruginosa clinical isolate Lankenau 24) | MIC ([2]; MRSA, S. aureus clinical isolate LH-SA3) | MIC ([2]; MRSA, S. aureus clinical isolate LH-SA9) | MIC ([2]; MRSA, S. aureus clinical isolate LH-SA23) | MIC ([2]; MRSA, S. aureus clinical isolate LH-SA24) | MIC ([2]; MRSA, S. aureus clinical isolate LH-SA26) | MIC ([2]; MRSA, S. aureus clinical isolate LH-SA33) | MIC ([2]; MRSA, S. aureus clinical isolate LH-SA37) | MIC ([2]; MRSA, S. aureus clinical isolate LH-SA39) | MIC ([2]; MRSA, S. aureus clinical isolate LH-SA40) | MIC ([2]; MRSA, S. aureus clinical isolate LH-SA41) | MIC ([2]; MRSA, S. aureus clinical isolate LH-SA48) | MIC ([2]; MRSA, S. aureus clinical isolate LH-SA49) | MIC ([2]; MRSA, S. aureus clinical isolate LH-SA50) | MIC50 [2, 4]
16 µg/mL: MIC ([2]; MRSA, S. aureus clinical isolate LH-SA29) | MIC ([2]; MRSA, S. aureus clinical isolate LH-SA45) | MIC90 [2, 4]
8 µg/mL: MIC ([2]; MRSA, S. aureus clinical isolate LH-SA34) | MIC ([2]; MRSA, S. aureus clinical isolate LH-SA42) | MIC ([2]; MRSA, S. aureus clinical isolate LH-SA44)
0.5 µg/mL: MIC ([1]; P. aeruginosa clinical isolate Lankenau 12) | MIC ([1]; P. aeruginosa clinical isolate Lankenau 14) | MIC ([1]; P. aeruginosa clinical isolate Lankenau 16) | MIC ([1]; P. aeruginosa clinical isolate Lankenau 18) | MIC ([1]; P. aeruginosa clinical isolate Lankenau 20) | MIC ([1]; P. aeruginosa clinical isolate Lankenau 22) | MIC ([1]; P. aeruginosa clinical isolate Lankenau 23) | MIC ([1]; P. aeruginosa clinical isolate Lankenau 25) | MIC ([1]; P. aeruginosa clinical isolate Lankenau 27) | MIC ([1]; P. aeruginosa clinical isolate Lankenau 28) | MIC ([1]; P. aeruginosa clinical isolate Lankenau 29) | MIC ([1]; P. aeruginosa clinical isolate Lankenau 30) | MIC50 [1, 3]
< 0.25 µg/mL: MIC ([1]; P. aeruginosa clinical isolate Lankenau 26)
